Patent US12121514B2, “Nonselective metabotropic glutamate receptor activators for treatment of attention deficit disorder and 22Q syndrome” (THE CHILDREN'S HOSPITAL OF PHILADELPHIA, priority 2015, dated 2024)

Tested on: adolescent subjects with ADHD and at least one genetic alteration in an mGluR network gene
Assay: Vanderbilt ADHD score (items 1-18, parent), Phase Ib trial of NFC-1
Format: in vivo, human
Conditions: relative to pre-study (enrollment) baseline
Source text: The Vanderbilt Rating Scale is a measure that can be completed by parents or teachers (separate forms, see Vanderbilt Rating Scale Parents and Vanderbilt Rating Scale Teachers). The Vanderbilt scale rates the child's behavior on items such as attention, finishing tasks, hyperactivity, difficulty waiting, and measures of conduct or oppositional defiant disorders—as well as measures of overall school performance and interactions with others. The first 18 items on the Vanderbilt scale correspond to those of the ADHD Rating Scale IV above while the Vanderbilt scale also includes items 19-47 related to other mental disorders including ODD (items 19-26), conduct disorder (items 27-40), anxiety (items 41, 42, and 47), and depression (items 43-46). Each of the behavioral assessment items on the Vanderbilt Scale are rated 0, 1, 2, or 3, with 0=never occurring; 1=occasionally, 2=often, and 3=very often. Thus, the ADHD Rating Scale IV, ADHD Rating Scale V, and items 1-18 of the Vanderbilt Rating Scale are equivalent scales, while additional items on the Vanderbilt Scale assess co-morbid phenotypes and disorders.
Each of the items are rated on a scale of 0, 1, 2, or 3, with 0=never; 1=occasionally, 2=often, and 3=very often. A total score of 0 to 54 is computed based on the answers to the 18 questions.
As used herein an “ADHD rating scale score,” “ADHD score” or “Vanderbilt ADHD score” are used interchangeably to refer to the computed score of the 18 items of the ADHD Rating Scale IV or V or the first 18 items of the Vanderbilt Rating Scale in any of their associated versions, e.g., for parent, teacher, or clinician to complete, and for a pediatric subject or adult subject. Clinical trials may assess the impact of drug or placebo on the ADHD score or Vanderbilt ADHD score (i.e. the score of 0 to 54 based on the first 18 items in the ADHD or Vanderbilt rating scale). In some cases, results of a clinical trial population may be analyzed by comparing the average score or a percentage change in score over time of administration of drug.
An open-label Phase Ib clinical trial was initiated to investigate the safety, pharmacokinetics and efficacy of NFC-1 (fasoracetam monohydrate) in adolescent subjects between the ages of 12 and 17 previously diagnosed with ADHD who also had at least one genetic alteration in an mGluR network gene.
Dose-escalation phase of the trial followed the PK and initial safety assessment and ran over a 5-week period. During week 1, all subjects were administered placebo capsules twice daily. After one week of placebo treatment, patients were started on 50 mg bid NFC-1 for 1 week. If safety and responsiveness data from prior dose level of fasoracetam indicated it was appropriate, subjects were then escalated to the next higher dose (100, 200, or 400 mg). […] Of the 30 trial subjects, 3 received a maximum dose of 100 mg, 9 received a maximum dose of 200 mg, and the remaining 18 received a maximum dose of 400 mg.
All efficacy assessments, except actigraphy, were made at study enrollment (“enrollment baseline”) and again, including actigraphy, once-per-week for the placebo week (“week 1” or “placebo baseline”) and at each of the 4 weeks of NFC-1 treatment. These efficacy measures include items 1-18 of the Vanderbilt scale assessing symptoms related to inattentiveness and hyperactivity-impulsiveness as well as additional questions 19-47 of the Vanderbilt scale assessing other behavioral symptoms (conducted by parent), actigraphy for quantitative measurement of activity, Quotient® ADHD test for objective measurement of micro-motion and shifts in attention state, PERMP-Math test, and CGI-I and CGI-S for assessment of global functioning. […]

[1] = Tier 1, Week 5, up to 400 mg bid
[2] = Tier 2, Week 3, up to 100 mg bid
[3] = Tier 2, Week 4, up to 200 mg bid
[4] = Tier 2, Week 5, up to 400 mg bid
[5] = Tier 3, Week 3, up to 100 mg bid
[6] = Tier 3, Week 4, up to 200 mg bid
[7] = Tier 3, Week 5, up to 400 mg bid

With O=C1CC[C@H](C(=O)N2CCCCC2)N1 [NFC-1, fasoracetam monohydrate] the “Percent of subjects with improvement in Vanderbilt ADHD score (at least 25% decrease)” value (Tier 1, Week 4, up to 200 mg bid) was 88%, the “Percent of subjects completing the dose escalation to 400 mg bid that show improvement in Vanderbilt ADHD scores (at least 25% decrease)” value (Tier 1, Week 5, 400 mg bid) was 89% and the “Percent of subjects completing the dose escalation to 400 mg bid that show robust improvement in Vanderbilt ADHD scores (at least 40% decrease)” value (Tier 1, Week 5, 400 mg bid) was 67%. The “Percent of subjects demonstrating robust improvement in Vanderbilt ADHD score (at least 40% decrease)” value [1] was 63%, the “Percent of subjects with improvement in Vanderbilt ADHD score (at least 25% decrease)” value [1] was 75% and the “Percent of subjects completing the dose escalation to 400 mg bid that show improvement in Vanderbilt ADHD scores (at least 25% decrease)” value (Tier 2, Week 2, 50 mg bid) was 20%. For the same compound, the “Percent of subjects completing the dose escalation to 400 mg bid that show robust improvement in Vanderbilt ADHD scores (at least 40% decrease)” value (Tier 2, Week 2, 50 mg bid) was 20%, the “Percent of subjects demonstrating robust improvement in Vanderbilt ADHD score (at least 40% decrease)” value (Tier 2, Week 2, 50 mg bid) was 14% and the “Percent of subjects with improvement in Vanderbilt ADHD score (at least 25% decrease)” value (Tier 2, Week 2, 50 mg bid) was 29%. The “Percent of subjects completing the dose escalation to 400 mg bid that show improvement in Vanderbilt ADHD scores (at least 25% decrease)” value (Tier 2, Week 3, 100 mg bid) was 20%, the “Percent of subjects completing the dose escalation to 400 mg bid that show robust improvement in Vanderbilt ADHD scores (at least 40% decrease)” value (Tier 2, Week 3, 100 mg bid) was 0% and the “Percent of subjects demonstrating robust improvement in Vanderbilt ADHD score (at least 40% decrease)” value [2] was 0%. The “Percent of subjects with improvement in Vanderbilt ADHD score (at least 25% decrease)” value [2] was 14%, the “Percent of subjects completing the dose escalation to 400 mg bid that show improvement in Vanderbilt ADHD scores (at least 25% decrease)” value (Tier 2, Week 4, 200 mg bid) was 20% and the “Percent of subjects completing the dose escalation to 400 mg bid that show robust improvement in Vanderbilt ADHD scores (at least 40% decrease)” value (Tier 2, Week 4, 200 mg bid) was 20%. The “Percent of subjects demonstrating robust improvement in Vanderbilt ADHD score (at least 40% decrease)” value [3] was 14%, the “Percent of subjects with improvement in Vanderbilt ADHD score (at least 25% decrease)” value [3] was 43% and the “Percent of subjects completing the dose escalation to 400 mg bid that show improvement in Vanderbilt ADHD scores (at least 25% decrease)” value (Tier 2, Week 5, 400 mg bid) was 80%. For the same compound, the “Percent of subjects completing the dose escalation to 400 mg bid that show robust improvement in Vanderbilt ADHD scores (at least 40% decrease)” value (Tier 2, Week 5, 400 mg bid) was 20%, the “Percent of subjects demonstrating robust improvement in Vanderbilt ADHD score (at least 40% decrease)” value [4] was 29% and the “Percent of subjects with improvement in Vanderbilt ADHD score (at least 25% decrease)” value [4] was 86%. For the same compound, the “Percent of subjects completing the dose escalation to 400 mg bid that show improvement in Vanderbilt ADHD scores (at least 25% decrease)” value (Tier 3, Week 2, 50 mg bid) was 33%, the “Percent of subjects completing the dose escalation to 400 mg bid that show robust improvement in Vanderbilt ADHD scores (at least 40% decrease)” value (Tier 3, Week 2, 50 mg bid) was 33% and the “Percent of subjects demonstrating robust improvement in Vanderbilt ADHD score (at least 40% decrease)” value (Tier 3, Week 2, 50 mg bid) was 50%. For the same compound, the “Percent of subjects with improvement in Vanderbilt ADHD score (at least 25% decrease)” value (Tier 3, Week 2, 50 mg bid) was 50%, the “Percent of subjects completing the dose escalation to 400 mg bid that show improvement in Vanderbilt ADHD scores (at least 25% decrease)” value (Tier 3, Week 3, 100 mg bid) was 0% and the “Percent of subjects completing the dose escalation to 400 mg bid that show robust improvement in Vanderbilt ADHD scores (at least 40% decrease)” value (Tier 3, Week 3, 100 mg bid) was 0%. The “Percent of subjects demonstrating robust improvement in Vanderbilt ADHD score (at least 40% decrease)” value [5] was 40%, the “Percent of subjects with improvement in Vanderbilt ADHD score (at least 25% decrease)” value [5] was 40% and the “Percent of subjects completing the dose escalation to 400 mg bid that show improvement in Vanderbilt ADHD scores (at least 25% decrease)” value (Tier 3, Week 4, 200 mg bid) was 0%. For the same compound, the “Percent of subjects completing the dose escalation to 400 mg bid that show robust improvement in Vanderbilt ADHD scores (at least 40% decrease)” value (Tier 3, Week 4, 200 mg bid) was 0%, the “Percent of subjects demonstrating robust improvement in Vanderbilt ADHD score (at least 40% decrease)” value [6] was 40% and the “Percent of subjects with improvement in Vanderbilt ADHD score (at least 25% decrease)” value [6] was 40%. The “Percent of subjects completing the dose escalation to 400 mg bid that show improvement in Vanderbilt ADHD scores (at least 25% decrease)” value (Tier 3, Week 5, 400 mg bid) was 67%, the “Percent of subjects completing the dose escalation to 400 mg bid that show robust improvement in Vanderbilt ADHD scores (at least 40% decrease)” value (Tier 3, Week 5, 400 mg bid) was 33% and the “Percent of subjects demonstrating robust improvement in Vanderbilt ADHD score (at least 40% decrease)” value [7] was 50%. The “Percent of subjects with improvement in Vanderbilt ADHD score (at least 25% decrease)” value [7] was 75%.
